# Reference: US20260015339A1, “CALIX[4]ARENES WITH HIGH ANTICANCER ACTIVITY” (UNIVERSITE GRENOBLE ALPES, priority 2023, published 2026)
# Tests used:
# [1] = Cu^+ transport into liposomes with encapsulated BCS; details: POPC/cholesterol 7:3 LUVs, calix[4]arene to lipid 1:1000, 50 μM copper gradient, F/F0 after 600 s
# Method: The ability of the examples of calix[4]arenes of the invention and the comparative examples to be delivered into a lipidic bilayer membrane of a liposome from a solution and their capacity to then act as a transporter of Cu^+ was evaluated using bathocuproine disulphonate (hereafter abbreviated “BCS”) encapsulated in large unilamellar vesicles (LUVs, also referred to as liposomes) composed of 1-palmitoyl-2-oleoyl-sn-glycero-3-phosphocholine and cholesterol in a 7:3 ratio.
# BCS is a fluorescent water soluble phenantroline derivative that can be used as fluorescent dye for the sensing of Cu^+ through the formation of a non-fluorescent 2:1 complex.
# Stock solution of lipids were prepared using deacidified CHCl3 and stored in a freezer. CHCl3 was deacidified by passing through activated basic alumina. The lipids used to prepare the liposomes were 2-oleoyl-1-palmitoyl-sn-glycero-3-phosphocholine (POPC), (purity ≥99%) and cholesterol (purity of 95%). 50 mM sodium phosphate buffer were prepared with Millipore water at pH 7 (±0.1) by mixing the solution of the mono- and the di-protonated phosphate salts. The solution of the dye (BCS) was prepared at 0.5 mM concentration in phosphate buffer.
# The lipids solutions were mixed in different ratios in a 5 mL round bottom flask. The POPC/cholesterol molar ratio was 7:3 in all experiments. The total amount of lipids per batch varied depending on the amount of liposomes solution required for the experiment. After mixing the lipid solutions in a round bottom flask, the chloroform was evaporated under a gentle air flow and the resulting lipid film was dried at high vacuum for at least an hour. 500 μL of the BCS solution in phosphate buffer and a magnetic stir bar were added to the flask. The flask was then sonicated for 30 seconds and placed under magnetic agitation for at least an hour. The solution was frozen with liquid nitrogen and heated back to room temperature with warm water ten times to form large unilamellar vesicles (LUVs). The liposome solution was extruded 29 times, using an extrusion kit equipped with a membrane with 200 nm pores. Subsequently, the solution was eluted with the buffer solution used for the experiment through a size exclusion column (Sephadex G-25) to remove the external BCS and then diluted with phosphate buffer to obtain a concentration of 0.4 mM in lipids.
# Solutions of the calix[4]arenes were prepared at a concentration of 0.24 mM in DMSO and 5 μL of the solution was added 2 minutes before each transport measurement.
# Alternatively, calix[4]arenes were pre-incorporated by combining the calix[4]arene (dissolved in chloroform) with the lipids prior to the evaporation of the chloroform to obtain a lipid film. The concentrations and volumes were chosen to obtain a calix[4]arene to lipid of 1:1000.
# Fluorescence measurements were performed with a Horiba FluoroMax 4 spectrometer using a 4-faced quartz cuvette (10 mm×10 mm). For the Cu^+ transport assay, the excitation was set at 278 nm and emission was recorded at 393 nm. These values correspond to the excitation and emission maxima of BCS encapsulated inside LUVs.
# The Cu^+ solutions added to the liposomes were obtained by dissolving Cu(MeCN)4BF4 in MeCN at 15.25 mM concentration. The copper solution was then diluted by a factor 5 in a phosphate buffer during the first 30 seconds of the experiment to reach a copper concentration of 3.05 mM. 50 μL of the diluted copper solution was added to 3 mL of liposomes, resulting in a copper gradient of 50 μM. The fluorescence level was monitored for 600 seconds after the addition of the copper solution.
# For each run the initial plateau and the initial vertical drop (due to the binding of the exterior dye with Cu^+ and the dilution, 1-4 seconds after the addition) were removed. Then the signal was normalised by dividing the fluorescence values (F) by the value at t=0 second (F0). […]
# [2] = test system: Hepatocellular carcinoma (HepG2/C3A) cells; assay: MTT cytotoxicity assay (DL50); format: cell-based; details: 24 hours of incubation
# Method: Cytotoxicity was evaluated using the MTT assay. 1.10^4 cells per well were seeded in a flat-bottom 96-well plate and were incubated for 48 hours at 37° C. with 5% CO2 before addition of the different calix[4]arenes at concentrations up to 200 μM. In all experiments, each condition was performed in triplicate in the plate. Besides, each experiment was done three times independently. After 24 hours of incubation in presence of the compounds, medium was discarded, cells were rinsed with PBS and 100 μL of medium containing 0.5 mg/mL of MTT was added to each well. After 30 minutes of incubation at 37° C., MTT solution was discarded and formazan crystals formed were dissolved in 150 μL of 4 mM HCl, 0.1% NP40 in isopropanol. The absorbance in the wells were read in a microplate reader (Tecan microplate reader-550) at 570 nm.
# [3] = Cu^+ binding by 1H NMR titration; details: 1H NMR titration with Cu(MeCN)4BF4, CD3CN/CDCl3 4/1, 298 K
# Method: Binding abilities and complexation constants of the examples of calix[4]arenes of the present invention and the comparative examples with Cu^+ were evaluated by ^1H NMR titrations at 298 K using copper(I)tetrakis(acetronitrile)tetrafluoroborate.
# For example, for each separate calix[4]arene a stock solution of the tested calix[4]arene was prepared in a CD3CN/CDCl3, 4/1 mixture. Using this stock solution, a Cu(MeCN)4BF4 solution was prepared and added by steps of 0.25 equivalent of copper(I) up until 1 equivalent and then by steps of 0.5 equivalent until a total of at least 2 equivalents. ^1H NMR spectra were recorded at a 400 MHz spectrometer at 298 K for the stock solutions of the calix[4]arenes and after each addition of Cu(MeCN)4BF4.
# Calix[4]arenes for which a gradual change of the chemical shifts of the ^1H NMR signals (>0.1 ppm for at least one of the signals) was observed upon addition of up to 4-5 equivalents of Cu(MeCN)4BF4 were considered to show weak binding.
# [4] = test system: H322 lung carcinoma cells; assay: MTS cytotoxicity assay on H322; format: cell-based; details: NCI-H322; H322, 72 hours of treatment
# Method: H322 lung carcinoma cells were seeded in 96-well plates together with the calix[4]arene of the formula (2). Cells were grown in RPMI-1640 supplemented with GlutaMAX™ (Gibco™) and fetal calf serum (FCS, 10%) and treated with a broad range of concentrations of the calix[4]arene of the formula (2). After 72 hours of treatment, the cytotoxicity was measured by means of the IC50 value, using the kit “CellTiter 96R AQuous One Solution Cell Proliferation Assay (MTS)” from Promega™. Following 30 minutes of incubation with the MTS reagent, the endpoint measurements were done in triplicate at 485 nm, using a fluorescence plate reader.
# H322 lung carcinoma cells were seeded in 96-well plates together with the compound of the 2nd comparative example of the formula (XI). Cells were grown in RPMI-1640 supplemented with GlutaMAX™ (Gibco™) and fetal calf serum (FCS, 10%) and treated with a broad range of concentrations of the 2nd comparative example of the formula (XI). After 72 hours of treatment, the cytotoxicity was measured by means of the IC50 value, using the kit “CellTiter 96R AQuous One Solution Cell Proliferation Assay (MTS)” from Promega™. Following 30 minutes of incubation with the MTS reagent, the endpoint measurements were done in triplicate at 485 nm, using a fluorescence plate reader.
# H322 lung carcinoma cells were seeded in 96-well plates together with the 1st comparative example of the formula (X). Cells were grown in RPMI-1640 supplemented with GlutaMAX™ (Gibco™) and fetal calf serum (FCS, 10%) and treated with a broad range of concentrations of the compound of the formula (X). After 72 hours of treatment, the cytotoxicity was measured by means of the IC50 value, using the kit “CellTiter 96R AQuous One Solution Cell Proliferation Assay (MTS)” from Promega™. Following 30 minutes of incubation with the MTS reagent, the endpoint measurements were done in triplicate at 485 nm, using a fluorescence plate reader.
# H322 lung carcinoma cells were seeded in 96-well plates together with the tested calix[4]arenes. Cells were grown in RPMI-1640 supplemented with GlutaMAX™ (Gibco™) and fetal calf serum (FCS, 10%) and treated with a broad range of concentrations of the tested calix[4]arenes. After 72 hours of treatment, the cytotoxicity was measured by means of the IC50 value, using the kit “CellTiter 96R AQuous One Solution Cell Proliferation Assay (MTS)” from Promega™. Following 30 minutes of incubation with the MTS reagent, the endpoint measurements were done in triplicate at 485 nm, using a fluorescence plate reader.
# [5] = test system: A549 human lung cancer cells; assay: MTS cytotoxicity assay on A549; format: cell-based; details: A549, 72 hours of treatment
# Method: A549 human lung cancer cells were seeded in 96-well plates together with the calix[4]arene of the formula (2). Cells were grown in RPMI-1640 supplemented with GlutaMAX™ (Gibco™) and fetal calf serum (FCS, 10%) and treated with a broad range of concentrations of the calix[4]arene of the formula (2). After 72 hours of treatment, the cytotoxicity was measured by means of the IC50 value, using the kit “CellTiter 96R AQuous One Solution Cell Proliferation Assay (MTS)” from Promega™. Following 30 minutes of incubation with the MTS reagent, the endpoint measurements were done in triplicate at 485 nm, using a fluorescence plate reader.
# A549 human lung cancer cells were seeded in 96-well plates together with the compound of the 2nd comparative example of the formula (XI). Cells were grown in RPMI-1640 supplemented with GlutaMAX™ (Gibco™) and fetal calf serum (FCS, 10%) and treated with a broad range of concentrations of the 2nd comparative example of the formula (XI). After 72 hours of treatment, the cytotoxicity was measured by means of the IC50 value, using the kit “CellTiter 96R AQuous One Solution Cell Proliferation Assay (MTS)” from Promega™. Following 30 minutes of incubation with the MTS reagent, the endpoint measurements were done in triplicate at 485 nm, using a fluorescence plate reader. […]
# [6] = test system: Non-malignant MRC5-SVII cells; assay: MTS cytotoxicity assay on MRC5-SVII; format: cell-based; details: 72 hours of treatment
# Method: Cells were grown in Minimal Essential Medium—Non Essential Amino Acids (MEM NEAA) culture medium from Gibco™, supplemented with sodium pyruvate ([…]), and fetal calf serum (FCS, 10%) and treated with a broad range of concentrations of the 2nd comparative example of the formula (XI).
# [7] = test system: PC9 human lung cancer cells; assay: MTS cytotoxicity assay on PC9; format: cell-based; details: PC9, 72 hours of treatment
# Method: PC9 human lung cancer cells were seeded in 96-well plates together with the calix[4]arene of the formula (2). Cells were grown in RPMI-1640 supplemented with GlutaMAX™ (Gibco™) and fetal calf serum (FCS, 10%) and treated with a broad range of concentrations of the calix[4]arene of the formula (2). After 72 hours of treatment, the cytotoxicity was measured by means of the IC50 value, using the kit “CellTiter 96R AQuous One Solution Cell Proliferation Assay (MTS)” from Promega™. Following 30 minutes of incubation with the MTS reagent, the endpoint measurements were done in triplicate at 485 nm, using a fluorescence plate reader.
# PC9 human lung cancer cells were seeded in 96-well plates together with the 2nd comparative example of the formula (XI). Cells were grown in RPMI-1640 supplemented with GlutaMAX™ (Gibco™) and fetal calf serum (FCS, 10%) and treated with a broad range of concentrations of the compound of the 2nd comparative example of the formula (XI). After 72 hours of treatment, the cytotoxicity was measured by means of the IC50 value, using the kit “CellTiter 96R AQuous One Solution Cell Proliferation Assay (MTS)” from Promega™. Following 30 minutes of incubation with the MTS reagent, the endpoint measurements were done in triplicate at 485 nm, using a fluorescence plate reader. […]
Compound,Cu^+ transport [1],IC50 [2] [µM],Cu^+ binding [3],IC50 [4] [µM],IC50 [5] [µM],IC50 [6] [µM],IC50 [7] [µM]
Cn1ccnc1COc1c2cccc1Cc1cccc(c1O)Cc1cccc(c1OCc1nccn1C)Cc1cccc(c1O)C2 [(6)],Yes (means that a significant decrease of the fluorescence of encapsulated BCS was observed upon addition of Cu^+ to the liposomes (F/F0<0.65 after 600 s)),20.7,Strong binding (means an affinity constant (Ka) equal or greater than 10^5 M^−1),> 10,–,–,–
CCCOc1c2cc([N+](=O)[O-])cc1Cc1cccc(c1OCc1nccn1C)Cc1cc([N+](=O)[O-])cc(c1OCCC)Cc1cccc(c1OCc1nccn1C)C2 [(7)],Yes (means that a significant decrease of the fluorescence of encapsulated BCS was observed upon addition of Cu^+ to the liposomes (F/F0<0.65 after 600 s)),10.9,Strong binding (means an affinity constant (Ka) equal or greater than 10^5 M^−1),5,–,–,–
CCCOc1c2cccc1Cc1cccc(c1OCCC)Cc1cccc(c1OCCC)Cc1cccc(c1OCCC)C2 [(XI)],No (means that no significant decrease of the fluorescence of encapsulated BCS was observed upon addition of Cu^+ to the liposomes (F/F0 >0.65 after 600 s) when the calix[4]arene was either delivered from a solution in DMSO to liposomes or pre-incorporated into the liposomes),184,Not significant (means that no significant changes of chemical shifts (<0.1 ppm) were observed upon addition of 4-5 equivalents of Cu(MeCN)4BF4),> 50,> 50,> 20,> 50
